Assay results: ChEMBL document CHEMBL5154908, “Design, Synthesis, and Biological Characterization of Inhaled p38α/β MAPK Inhibitors for the Treatment of Lung Inflammatory Diseases” (J Med Chem, 2022)
In brackets after ≈: the same amount, converted by molar mass.

Columns and labels:
[1] = molecular target: T1, Mitogen-activated protein kinase 14 (Homo sapiens, UniProt Q16539); assay: Displacement of SKF-86002 from human inactivated p38alpha assessed as dissociation half life incubated for 2 hrs by fluorescence based analysis
[2] = Inhibition of LPS-stimulated TNFalpha release in human PBMC cells preincubated for 1 hr followed by LPS stimulation and measured after 18 hrs; format: functional, cell-based
[3] = molecular target: T1, Mitogen-activated protein kinase 14; assay: Inhibition of human recombinant full length GST-tagged p38alpha expressed in Escherichia coli preincubated for 2 hrs followed by ATP addition and measured after 1 hr by Alpha screen assay
[4] = test system: Rattus norvegicus; assay: Antiinflammatory activity against LPS-induced Sprague-Dawley rat inflammatory model assessed as inhibition of neutrophil cells release in BALF at 0.3 mg/kg, IT measured after 12 hrs relative to control; format: functional
[5] = Drug uptake in Sprague-Dawley rat lung homogenate at 0.03 mg/kg, IT measured after 24 hrs by LC/MS/MS analysis; format: ADME, organism-based; conditions: in vivo, other
[6] = Protein binding in rat lung homogenate at 10 uM incubated for 4 hrs by LC/MS/MS analysis; format: ADME, tissue-based; conditions: read-out: PB (converted)
[7] = Cmax in Sprague-Dawley rat plasma at 0.3 mg/kg, IT measured after 0.8 hrs by LC/MS/MS analysis; format: ADME, organism-based; set-up: time 0.8 hrs, dose 0.3 mg/kg, route it
[8] = Protein binding in rat plasma at 10 uM incubated for 4 hrs by LC/MS/MS analysis; format: ADME, cell-free; conditions: read-out: PPB (converted)
[9] = Permeability across apical to basolateral side in human Caco-2 cells at 10 uM measured after 60 mins by LC/MS/MS analysis; format: ADME, cell-based; conditions: read-out: permeability
[10] = Efflux ratio of permeability in human Caco-2 cells at 10 uM measured after 60 mins by LC-MS/MS analysis; format: ADME, cell-based
[11] = Drug concentration in Sprague-Dawley rat lung homogenate at 0.3 mg/kg, IT measured after 24 hrs by LC/MS/MS analysis; format: ADME, organism-based; conditions: read-out: Ct
[12] = molecular target: T2, Mitogen-activated protein kinase 13 (Homo sapiens, UniProt O15264); assay: Inhibition of recombinant human full length His-tagged p38delta expressed in baculovirus expression system preincubated for 2 hrs followed by ATP addition and measured after 1 hr by Alpha screen assay
T2 sequence (O15264 whole entry): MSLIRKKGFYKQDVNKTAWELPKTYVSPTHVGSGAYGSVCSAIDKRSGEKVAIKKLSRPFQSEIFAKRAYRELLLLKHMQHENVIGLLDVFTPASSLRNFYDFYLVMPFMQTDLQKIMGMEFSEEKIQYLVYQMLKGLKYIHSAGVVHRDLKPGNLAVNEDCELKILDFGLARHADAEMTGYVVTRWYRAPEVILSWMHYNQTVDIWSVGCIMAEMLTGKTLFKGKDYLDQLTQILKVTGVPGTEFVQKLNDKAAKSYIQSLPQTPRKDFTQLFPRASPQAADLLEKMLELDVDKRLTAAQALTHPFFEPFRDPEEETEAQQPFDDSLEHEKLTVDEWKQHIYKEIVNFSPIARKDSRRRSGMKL

[13] = Selectivity index, ratio of drug concentration in Sprague-Dawley rat lung homogenate to IC50 for human p38alpha; format: tissue-based; conditions: tissue homogenate
[14] = Solubility of the compound at >=1 mg/ml measured after 30 mins by HPLC analysis; format: physicochemical
[15] = Cmax in Sprague-Dawley rat lung homogenate at 0.3 mg/kg, IT measured after 0.8 hrs by LC/MS/MS analysis; format: ADME, organism-based; set-up: time 0.8 hrs, dose 0.3 mg/kg, route it
[16] = Metabolic stability in rat liver microsomes assessed as half life at 1 uM preincubated for 10 mins followed by NADPH addition and measured after 30 mins by LC/MS/MS analysis; format: ADME, Microsome; conditions: time 40 min
[17] = Drug uptake in Sprague-Dawley rat lung homogenate at 0.03 mg/kg, IT measured after 7 hrs by LC/MS/MS analysis; format: ADME, organism-based; conditions: in vivo, other

T1 sequence (Q16539 whole entry): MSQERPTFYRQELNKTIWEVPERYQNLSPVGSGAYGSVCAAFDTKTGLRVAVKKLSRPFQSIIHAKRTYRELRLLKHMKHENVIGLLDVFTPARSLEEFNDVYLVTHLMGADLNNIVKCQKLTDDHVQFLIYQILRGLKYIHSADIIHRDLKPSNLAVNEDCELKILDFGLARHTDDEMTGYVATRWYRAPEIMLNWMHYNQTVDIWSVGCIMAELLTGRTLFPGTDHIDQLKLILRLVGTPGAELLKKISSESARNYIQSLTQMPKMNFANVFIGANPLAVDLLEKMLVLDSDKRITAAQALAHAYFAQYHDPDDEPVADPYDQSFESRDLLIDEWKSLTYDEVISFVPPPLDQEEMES

SMILES | T1/2 [1] [h] | IC50 [2] [nM] | IC50 [3] [nM] | other results
C[C@H]1CCCCN1c1nnc2ccc(O[C@@H]3CC[C@H](NC(=O)Nc4cc(C(C)(C)C)nn4-c4cnn(CCN5CCC(O)CC5)c4)c4ccccc43)cn12 | > 16 | 5.1 | 0.4 | 
CC(C)c1nnc2ccc(O[C@@H]3CC[C@H](NC(=O)Nc4cc(C(C)(C)C)nn4-c4ccc(O)c(Cl)c4)c4ccccc43)cn12 | 1.31 | 1.1 | 0.08 | 
C[C@@H]1CCCCN1c1nnc2ccc(O[C@@H]3CC[C@H](NC(=O)Nc4cc(C(C)(C)C)nn4-c4cccc(OCCN(C)C)c4)c4ccccc43)cn12 | 5.4 | 1.6 | 0.2 | 
CC(C)c1nnc2ccc(O[C@@H]3CC[C@H](NC(=O)Nc4cc(C(C)(C)C)nn4-c4cccc(OCCN(C)C)c4)c4ccccc43)cn12 | 0.89 | 9.1 | 0.8 | 
CC(C)(C)c1cc(NC(=O)N[C@H]2CC[C@@H](Oc3ccc4nnc(N5CCCCC5)n4c3)c3ccccc32)n(-c2ccc(Cl)c(O)c2)n1 | > 16 | 0.2 | 0.5 | 
Cc1ccc(-n2nc(C(C)(C)C)cc2NC(=O)N[C@H]2CC[C@H](Oc3ccc4nnc(C(C)C)n4c3)c3ccccc32)cc1 | > 16 | 0.1 | 0.1 | 
Cc1ccc(-n2nc(C(C)(C)C)cc2NC(=O)N[C@H]2CC[C@@H](Oc3ccc4nnc(N5CCCC5)n4c3)c3ccccc32)cc1 | > 16 | 0.3 | 0.5 | 
C[C@H]1CCCCN1c1nnc2ccc(O[C@@H]3CC[C@H](NC(=O)Nc4cc(C(C)(C)C)nn4-c4cnn(CCN5CCN(C)CC5)c4)c4ccccc43)cn12 | > 16 | 3.2 | 0.3 | 
C[C@H]1CCCCN1c1nnc2ccc(O[C@@H]3CC[C@H](NC(=O)Nc4cc(C(C)(C)C)nn4-c4cnn(CCN5CCCOCC5)c4)c4ccccc43)cn12 | > 16 | 0.8 | 0.4 | 
C[C@H]1CCCCN1c1nnc2ccc(O[C@@H]3CC[C@H](NC(=O)Nc4cc(C(C)(C)C)nn4-c4cnn(CCN(C)C)c4)c4ccccc43)cn12 |  | 1 | 0.1 | inhibition in vivo at 0.3 mg/kg [4]: 56%; Drug uptake [5]: 1.7%; fraction unbound at 4 h, 10 µM [6]: 0.005; Cmax [7]: 20 nM; fraction unbound at 4 h, 10 µM [8]: 0.014; Papp A→B at 1 h, 10 µM [9]: 1.2 ×10⁻⁶ cm/s; efflux ratio at 1 h, 10 µM [10]: > 2.5; concentration at 24 h [11]: 1400 nM; IC50 [12]: 4100 nM; Ratio [13]: 70; solubility at 0.5 h [14]: 800 µg/mL (≈ 1180 µM); Cmax [15]: 3040 nM; half-life at 1 µM [16]: < 5 min; Drug uptake [17]: 7.2%
C[C@H]1CCCCC1c1nnc2ccc(O[C@@H]3CC[C@H](NC(=O)Nc4cc(C(C)(C)C)nn4-c4cccc(OCCN5CCOCC5)c4)c4ccccc43)cn12 (some centres undefined) | > 16 | 0.8 | 0.5 | 
CN(C)CCOc1cc(-n2nc(C(C)(C)C)cc2NC(=O)N[C@H]2CC[C@@H](Oc3ccc4nnc(N5CCCCC5)n4c3)c3ccccc32)ccc1Cl | 3.5 | 1.4 | 0.2 | 
